# Test results published in EP2719280A1, “Use of N-phenylethylpyrazole carboxamide derivatives or salts thereof for resistance management of phytopathogenic fungi” (priority 2012, dated 2014).
# Assays:
# [1] = tested on: Alternaria alternata SDH-mutants; conditions: boscalid-resistant isolates carrying SDH- mutations; in vitro; cited from earlier work
# [2] = tested on: Botrytis cinerea (BOTRCI); assay: In vitro microtiter plate assay, mycelial growth determined photometrically at 620nm; format: cell-based; conditions: succinate medium; for after 4 days EC50 [ppm]: 4 days after inoculation; for after 6 days EC50 [ppm]: 6 days after inoculation
# Method: (§1) In Vitro-activity against various strains of Corynespora cassiicola and Botrytis cinerea resistant to SDHIs
# Pathogen: Botrytis cinerea (BOTRCI) sampled in European vineyards • 1. sensitive strain B047 • 2. resistant strain B 1 • 3. resistant strain B2 • 4. resistant strain B3 • 5. resistant strain B4 • 6. resistant strain B5 • 7. resistant strain B6
# Conidia of isolates of Botrytis cinerea included in the microtiter plate assay were received from cultures grown at 20°C under black light for eight days. Conidia in steril water were used to inoculate the growth medium with 20.000 spores/well. Liquid succinate medium + 40 mg/L Enrofloxacin were used as growth medium. All isolates were tested with the following concentrations of boscalid and compound (1-1): 0 (control) 0.00192, 0.0096, 0.048, 0.24, 1.2, 6 and 30 ppm. 96-well microplates were prepared in the following way: at first, 10 µl methanol (80 %) containing the amount of active ingredient required per concentration, was added to the cavities. After evaporation of the solvent and one day prior to inoculation, 100 ul growth medium was added to each well and the plate was stirred for at least two hours on a shaker. Then, 100 ul of the spore suspension, prepared as described above, were given into each cavity. The plates were incubated at 300 rpm on a shaker for 6 days at 20°C. Mycelia growth was determined photometrically at 620nm, four and six days after inoculation. EC50 values were calculated according to the extinction values.
# [3] = tested on: Corynespora cassiicola (CORYCA); assay: as above; format: cell-based; conditions: 400 spores&mycelia / well; for after 3 days EC50 [ppm]: 3 days after inoculation; for after 5 days EC50 [ppm]: 5 days after inoculation; for after 7 days EC50 [ppm]: 7 days after inoculation
# Method: as §1
# Pathogen: Corynespora cassiicola (CORYCA) originating from cucurbits in Florida (US) • 1. sensitive strain (S011/12) • 2. resistant strain S1 • 3. resistant strain S2
# Spores and mycelia of isolates of Corynespora cassiicola used in the microtiter plate assays were received from four weeks old cultures grown on PDA at 20 °C under black light. Spores and mycelia in steril water were used to inoculate the growth medium with 400 spores/mycelia per well. In the microtiter plate assay potato dextrose broth (PDB) was used as growth medium containing 25 mg/L Enrofloxacin. All isolates were tested with the following concentrations of boscalid and compound (1-1): 0 (control) 0.0064, 0.032, 0.16, 0.8, 4, 20 and 100 ppm. 96-well microplates were prepared in the following way: at first, 10 µl methanol (80 %) containing the amount of active ingredient required per concentration, was added to the cavities. After evaporation of the solvent and one day prior to inoculation, 140 ul growth medium was added to each well and the plate was stirred for at least two hours on a shaker. Then, 60 ul of the spore suspension, prepared as described above, were given into each cavity. The plates were incubated at 300 rpm on a shaker for 7 days at 24°C. Mycelia growth was determined photometrically at 620nm, three, five and seven days after inoculation. EC50 values were calculated according to the extinction values.
SMILES,mycelial growth [1],after 4 days EC50 [ppm] ([2]; resistant strain B1),after 6 days EC50 [ppm] ([2]; resistant strain B1),after 4 days EC50 [ppm] ([2]; resistant strain B2),after 6 days EC50 [ppm] ([2]; resistant strain B2),after 4 days EC50 [ppm] ([2]; resistant strain B3),after 6 days EC50 [ppm] ([2]; resistant strain B3),after 4 days EC50 [ppm] ([2]; resistant strain B4),after 6 days EC50 [ppm] ([2]; resistant strain B4),after 4 days EC50 [ppm] ([2]; resistant strain B5),after 6 days EC50 [ppm] ([2]; resistant strain B5),after 4 days EC50 [ppm] ([2]; resistant strain B6),after 6 days EC50 [ppm] ([2]; resistant strain B6),after 4 days EC50 [ppm] ([2]; sensitive strain B047),after 6 days EC50 [ppm] ([2]; sensitive strain B047),after 3 days EC50 [ppm] ([3]; isolate S011/12 (sensitive)),after 5 days EC50 [ppm] ([3]; isolate S011/12 (sensitive)),after 7 days EC50 [ppm] ([3]; isolate S011/12 (sensitive)),after 3 days EC50 [ppm] ([3]; resistant strain S1),after 5 days EC50 [ppm] ([3]; resistant strain S1),other results
O=C(NCCc1ncc(C(F)(F)F)cc1Cl)c1ccccc1C(F)(F)F [fluopyram],strongly inhibited,–,–,–,–,–,–,–,–,–,–,–,–,–,–,–,–,–,–,–,–
"COC(c1ccc(Cl)cc1Cl)C(C)NC(=O)c1cn(C)nc1C(F)F (stereo not drawn) [Compound (1-1), 3-difluoromethyl-1-methyl-1H-pyrazole-4-carboxylic acid [2-(2,4-dichlorophenyl)-2-methoxy-1-methyl-ethyl]-amide]",–,"4,449 ppm","6,467 ppm","2,759 ppm","3,073 ppm","1,762 ppm","1,798 ppm","2,166 ppm","1,905 ppm","14,663 ppm","18,965 ppm","0,875 ppm","1,390 ppm","0,288 ppm","0,290 ppm","0,106 ppm","0,368 ppm","0,341 ppm","1,204 ppm","1,971 ppm","after 7 days EC50 [ppm] ([3]; resistant strain S1): 1,635 ppm; after 3 days EC50 [ppm] ([3]; resistant strain S2): 2,583 ppm; after 5 days EC50 [ppm] ([3]; resistant strain S2): 7,653 ppm; after 7 days EC50 [ppm] ([3]; resistant strain S2): 10,162 ppm"
CC(C)CC(C)c1sccc1NC(=O)c1cn(C)nc1C(F)(F)F (stereo not drawn) [penthiopyrad],not affected,–,–,–,–,–,–,–,–,–,–,–,–,–,–,–,–,–,–,–,–
O=C(Nc1ccccc1-c1ccc(Cl)cc1)c1cccnc1Cl [Boscalid],–,>30 ppm,>30 ppm,>30 ppm,>30 ppm,>30 ppm,>30 ppm,>30 ppm,>30 ppm,>30 ppm,>30 ppm,>30 ppm,>30 ppm,"0,286 ppm","0,317 ppm","0,519 ppm","1,387 ppm","1,225 ppm",>100 ppm,>100 ppm,after 7 days EC50 [ppm] ([3]; resistant strain S1): >100 ppm; after 3 days EC50 [ppm] ([3]; resistant strain S2): >100 ppm; after 5 days EC50 [ppm] ([3]; resistant strain S2): >100 ppm; after 7 days EC50 [ppm] ([3]; resistant strain S2): >100 ppm
